Experimental data: ChEMBL document CHEMBL5442175, “EUbOPEN Chemogenomics Library - PDSP Secondary Binding” (2024)
Counter-ions that a name gives are not always drawn. One block for each compound: values may come before it.

Legend:
[1] = target: Beta-3 adrenergic receptor (Homo sapiens, UniProt P13945); test: (§1) PDSP Secondary Binding target: ADRB3 - Compounds are tested at 10 uM concentration, plate are incubated at room temperature in the dark for 90 minutes. Reaction are stopped by vacuum filtration onto 0.3% polyethyleneimine soaked filter mats using Filtermate harvester. Scintillation cocktail is then melted onto microwave-dried filters on a hot plate and the radio activity is counted in Microbia counter.
[2] = target: Kappa-type opioid receptor (Homo sapiens, UniProt P41145); test: as §1, with “OPRK1” for “ADRB3”
Histamine H2 receptor = Histamine H2 receptor (Homo sapiens, UniProt P25021); test: as §1, with “HRH2” for “ADRB3”
[3] = target: T1, Muscarinic acetylcholine receptor M1 (Homo sapiens, UniProt P11229); test: as §1, with “CHRM1” for “ADRB3”
T1 sequence (P11229 whole entry): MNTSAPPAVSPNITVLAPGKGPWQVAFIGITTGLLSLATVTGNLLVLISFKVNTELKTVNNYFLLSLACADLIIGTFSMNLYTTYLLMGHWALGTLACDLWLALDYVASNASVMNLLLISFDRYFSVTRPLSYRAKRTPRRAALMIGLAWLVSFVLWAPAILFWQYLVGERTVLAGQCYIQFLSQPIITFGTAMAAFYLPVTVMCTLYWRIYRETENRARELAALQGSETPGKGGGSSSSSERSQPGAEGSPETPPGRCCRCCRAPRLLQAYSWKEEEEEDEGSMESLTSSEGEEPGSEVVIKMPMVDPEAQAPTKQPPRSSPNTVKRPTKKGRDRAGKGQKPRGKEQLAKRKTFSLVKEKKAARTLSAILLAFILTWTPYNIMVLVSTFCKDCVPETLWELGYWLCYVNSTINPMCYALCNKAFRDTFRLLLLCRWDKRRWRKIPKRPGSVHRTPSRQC

[4] = target: T2, Muscarinic acetylcholine receptor M4 (Homo sapiens, UniProt P08173); test: as §1, with “CHRM4” for “ADRB3”
T2 sequence (P08173 whole entry): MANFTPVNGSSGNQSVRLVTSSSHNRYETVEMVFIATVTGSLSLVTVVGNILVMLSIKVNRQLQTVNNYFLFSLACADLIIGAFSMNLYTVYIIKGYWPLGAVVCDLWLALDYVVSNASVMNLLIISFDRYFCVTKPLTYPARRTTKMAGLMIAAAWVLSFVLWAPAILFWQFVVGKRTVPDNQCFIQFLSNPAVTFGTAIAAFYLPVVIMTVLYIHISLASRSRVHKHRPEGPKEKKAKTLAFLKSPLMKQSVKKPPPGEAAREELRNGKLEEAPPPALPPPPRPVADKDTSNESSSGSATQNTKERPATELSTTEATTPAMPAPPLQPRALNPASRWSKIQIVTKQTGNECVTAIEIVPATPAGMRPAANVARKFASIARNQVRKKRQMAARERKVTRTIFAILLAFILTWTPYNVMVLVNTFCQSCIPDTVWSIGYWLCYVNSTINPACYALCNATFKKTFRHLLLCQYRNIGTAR

[5] = target: T3, Muscarinic acetylcholine receptor M2 (Homo sapiens, UniProt P08172); test: as §1, with “CHRM2” for “ADRB3”
T3 sequence (P08172 whole entry): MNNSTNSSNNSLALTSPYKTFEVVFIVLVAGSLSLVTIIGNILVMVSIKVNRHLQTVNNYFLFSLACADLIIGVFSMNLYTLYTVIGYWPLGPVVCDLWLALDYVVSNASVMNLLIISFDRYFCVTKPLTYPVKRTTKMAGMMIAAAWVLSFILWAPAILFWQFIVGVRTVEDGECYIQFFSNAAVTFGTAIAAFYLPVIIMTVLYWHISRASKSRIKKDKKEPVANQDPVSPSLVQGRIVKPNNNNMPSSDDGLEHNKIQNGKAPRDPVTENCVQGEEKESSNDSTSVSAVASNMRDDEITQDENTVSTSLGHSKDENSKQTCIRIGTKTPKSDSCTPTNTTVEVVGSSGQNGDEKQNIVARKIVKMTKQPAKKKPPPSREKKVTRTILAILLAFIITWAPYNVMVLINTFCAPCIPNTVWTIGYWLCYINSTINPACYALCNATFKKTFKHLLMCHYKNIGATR

[6] = target: Beta-2 adrenergic receptor (Homo sapiens, UniProt P07550); test: as §1, with “ADRB2” for “ADRB3”
Histamine H3 receptor = Histamine H3 receptor (Homo sapiens, UniProt Q9Y5N1); test: as §1, with “HRH3” for “ADRB3”
Translocator protein = Translocator protein (Homo sapiens, UniProt P30536); test: as §1, with “TSPO” for “ADRB3”
[7] = target: T4, 5-hydroxytryptamine receptor 3A (Homo sapiens, UniProt P46098); test: as §1, with “HTR3A” for “ADRB3”
T4 sequence (P46098 whole entry): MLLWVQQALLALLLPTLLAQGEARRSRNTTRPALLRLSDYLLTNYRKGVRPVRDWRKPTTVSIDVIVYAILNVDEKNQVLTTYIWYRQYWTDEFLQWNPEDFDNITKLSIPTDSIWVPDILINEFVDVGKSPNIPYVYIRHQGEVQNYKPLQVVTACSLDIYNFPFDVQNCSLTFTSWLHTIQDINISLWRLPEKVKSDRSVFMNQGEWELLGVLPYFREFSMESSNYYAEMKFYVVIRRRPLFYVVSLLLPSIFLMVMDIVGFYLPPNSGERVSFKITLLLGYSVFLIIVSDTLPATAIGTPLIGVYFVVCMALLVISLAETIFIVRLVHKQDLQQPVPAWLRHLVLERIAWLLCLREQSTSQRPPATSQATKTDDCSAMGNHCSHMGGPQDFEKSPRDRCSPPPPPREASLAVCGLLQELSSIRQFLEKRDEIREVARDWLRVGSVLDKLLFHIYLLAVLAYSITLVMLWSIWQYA

[8] = target: Beta-1 adrenergic receptor (Homo sapiens, UniProt P08588); test: as §1, with “ADRB1” for “ADRB3”
Beta-1 adrenergic receptor, sequence (P08588 whole entry): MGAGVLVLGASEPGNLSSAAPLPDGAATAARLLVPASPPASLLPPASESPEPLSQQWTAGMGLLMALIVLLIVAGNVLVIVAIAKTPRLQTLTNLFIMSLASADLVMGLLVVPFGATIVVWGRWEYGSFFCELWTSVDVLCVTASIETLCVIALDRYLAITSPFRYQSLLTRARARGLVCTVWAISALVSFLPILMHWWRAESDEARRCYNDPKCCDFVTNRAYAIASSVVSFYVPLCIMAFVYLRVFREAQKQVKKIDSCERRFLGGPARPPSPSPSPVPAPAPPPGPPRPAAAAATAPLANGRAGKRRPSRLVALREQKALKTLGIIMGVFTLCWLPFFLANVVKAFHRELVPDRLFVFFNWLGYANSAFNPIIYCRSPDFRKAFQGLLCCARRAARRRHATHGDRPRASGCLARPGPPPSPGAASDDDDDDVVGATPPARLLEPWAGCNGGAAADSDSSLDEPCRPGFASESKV

Kappa-type opioid receptor, sequence (P41145 whole entry): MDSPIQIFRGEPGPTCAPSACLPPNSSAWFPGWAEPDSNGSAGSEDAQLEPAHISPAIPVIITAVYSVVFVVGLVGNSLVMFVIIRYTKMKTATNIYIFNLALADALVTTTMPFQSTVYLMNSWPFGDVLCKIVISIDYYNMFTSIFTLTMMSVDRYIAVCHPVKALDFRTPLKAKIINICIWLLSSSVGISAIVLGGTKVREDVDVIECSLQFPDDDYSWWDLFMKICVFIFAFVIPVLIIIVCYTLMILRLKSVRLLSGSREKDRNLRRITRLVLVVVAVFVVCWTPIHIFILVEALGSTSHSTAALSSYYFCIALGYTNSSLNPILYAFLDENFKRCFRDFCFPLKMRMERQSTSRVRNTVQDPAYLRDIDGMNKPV
Beta-3 adrenergic receptor, sequence (P13945 whole entry): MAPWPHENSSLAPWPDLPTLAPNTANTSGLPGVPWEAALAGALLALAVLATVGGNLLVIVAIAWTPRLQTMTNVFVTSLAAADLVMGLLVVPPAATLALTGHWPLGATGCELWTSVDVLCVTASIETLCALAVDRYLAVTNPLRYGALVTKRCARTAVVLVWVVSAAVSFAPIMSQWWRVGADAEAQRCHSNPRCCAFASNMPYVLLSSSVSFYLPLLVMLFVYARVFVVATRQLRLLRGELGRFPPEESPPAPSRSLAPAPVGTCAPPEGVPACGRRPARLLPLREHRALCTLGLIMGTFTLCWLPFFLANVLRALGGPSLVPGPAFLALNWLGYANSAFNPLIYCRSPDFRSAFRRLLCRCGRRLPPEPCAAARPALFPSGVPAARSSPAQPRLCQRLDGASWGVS
Histamine H3 receptor, sequence (Q9Y5N1 whole entry): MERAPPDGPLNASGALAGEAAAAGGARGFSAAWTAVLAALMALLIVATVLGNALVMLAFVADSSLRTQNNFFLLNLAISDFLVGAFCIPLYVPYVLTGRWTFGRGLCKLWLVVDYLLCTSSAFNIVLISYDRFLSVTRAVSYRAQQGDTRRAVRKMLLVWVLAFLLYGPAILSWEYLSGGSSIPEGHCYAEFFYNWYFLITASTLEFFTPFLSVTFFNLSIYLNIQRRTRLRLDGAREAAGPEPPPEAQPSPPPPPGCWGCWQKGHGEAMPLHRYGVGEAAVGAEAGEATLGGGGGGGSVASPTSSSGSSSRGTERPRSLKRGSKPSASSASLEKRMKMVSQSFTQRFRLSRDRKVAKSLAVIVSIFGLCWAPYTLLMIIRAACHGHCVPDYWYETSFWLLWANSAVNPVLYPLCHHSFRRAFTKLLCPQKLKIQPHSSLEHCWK
Translocator protein, sequence (P30536 whole entry): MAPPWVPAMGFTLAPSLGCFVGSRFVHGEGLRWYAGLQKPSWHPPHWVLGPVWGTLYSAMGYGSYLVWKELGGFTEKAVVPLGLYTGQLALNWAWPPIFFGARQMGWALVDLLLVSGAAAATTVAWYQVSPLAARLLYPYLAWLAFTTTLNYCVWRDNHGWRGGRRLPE
Beta-2 adrenergic receptor, sequence (P07550 whole entry): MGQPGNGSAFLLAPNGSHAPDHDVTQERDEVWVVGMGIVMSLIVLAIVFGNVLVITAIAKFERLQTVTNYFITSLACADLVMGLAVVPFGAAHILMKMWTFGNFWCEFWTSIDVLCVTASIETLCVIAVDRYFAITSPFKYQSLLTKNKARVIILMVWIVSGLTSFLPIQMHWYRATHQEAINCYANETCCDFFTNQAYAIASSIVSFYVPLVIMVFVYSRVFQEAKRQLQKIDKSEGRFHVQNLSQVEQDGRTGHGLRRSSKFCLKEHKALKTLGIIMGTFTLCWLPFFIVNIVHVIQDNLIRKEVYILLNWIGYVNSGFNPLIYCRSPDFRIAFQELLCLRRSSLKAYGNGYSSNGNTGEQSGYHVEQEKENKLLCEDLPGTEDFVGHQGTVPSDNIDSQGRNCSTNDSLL
Histamine H2 receptor, sequence (P25021 whole entry): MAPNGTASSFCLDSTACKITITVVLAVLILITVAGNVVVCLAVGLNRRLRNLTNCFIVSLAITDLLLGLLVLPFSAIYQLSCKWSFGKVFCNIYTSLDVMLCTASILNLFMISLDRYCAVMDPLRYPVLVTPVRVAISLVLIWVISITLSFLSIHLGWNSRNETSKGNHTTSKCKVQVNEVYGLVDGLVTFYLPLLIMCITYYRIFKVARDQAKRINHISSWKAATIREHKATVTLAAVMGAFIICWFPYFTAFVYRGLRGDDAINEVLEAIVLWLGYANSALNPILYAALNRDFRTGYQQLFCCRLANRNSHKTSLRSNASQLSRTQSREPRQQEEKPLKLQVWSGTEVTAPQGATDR

Ki [2]: 2.87 µM
SMILES: O=S1(=O)c2cccc3cccc(c23)N1CCCN1CCN(c2ccc(F)cc2)CC1 [FANANSERIN]

Ki [6]: 0.81 µM
Ki (Histamine H3 receptor): 0.0824 µM
Ki [3]: 0.717 µM
Ki [5]: 0.204 µM
SMILES: CN1CCN(c2ccc(Nc3c4ccccc4nc4ccccc34)cc2)CC1

Ki [2]: 1.45 µM
SMILES: Cc1nc2sccn2c(=O)c1CCN1CCC(=C(c2ccc(F)cc2)c2ccc(F)cc2)CC1 [RITANSERIN]

Ki [1]: > 10 µM
SMILES: CN1CCCC(n2nc(Cc3ccc(Cl)cc3)c3ccccc3c2=O)CC1 (centres undefined) [AZELASTINE HYDROCHLORIDE]

Ki [2]: 0.347 µM
Ki (Histamine H3 receptor): 2.14 µM
Ki (Translocator protein): 0.953 µM
SMILES: COC(=O)C1=C(C)NC(C)=C(C(=O)OCCCN2CCC(c3ccccc3)(c3ccccc3)CC2)[C@H]1c1cccc([N+](=O)[O-])c1 [NIGULDIPINE]

Ki [6]: 0.969 µM
Ki (Histamine H3 receptor): 2.61 µM
Ki [7]: 1.53 µM
SMILES: O=c1ccc2ccc(OCCCCN3CCN(c4cccc5sccc45)CC3)cc2[nH]1 [BREXPIPRAZOLE]

Ki [6]: 2.49 µM
SMILES: N#Cc1ccc2[nH]cc(CCCCN3CCN(c4ccc5oc(C(N)=O)cc5c4)CC3)c2c1 [VILAZODONE HYDROCHLORIDE]

Ki [3]: 0.955 µM
Ki [7]: 0.0637 µM
Ki [8]: 2.03 µM
Ki [4]: 0.444 µM
SMILES: Clc1cccc(COc2cncc(N3CCNCC3)n2)c1

Ki (Translocator protein): 1.99 µM
SMILES: CCc1nn(CCCN2CCN(c3cccc(Cl)c3)CC2)c(=O)n1CCOc1ccccc1 [NEFAZODONE HYDROCHLORIDE]

Ki [1]: 6.31 µM
Ki [3]: 2.33 µM
Ki (Translocator protein): 4.01 µM
Ki [4]: 1.96 µM
SMILES: CCc1ccc(OCc2ccccc2C(=O)Nc2ccc3nc(C)cc(N)c3c2)cc1

Ki [2]: 1.11 µM
Ki (Histamine H3 receptor): 0.104 µM
Ki [3]: 2.58 µM
SMILES: S=C(NCCCc1c[nH]cn1)NCCCN(Cc1ccc(Cl)c(Cl)c1)c1ccc(Br)cn1

The next lines start with the compound.

SMILES: Cc1c(P(=S)(c2ccccc2)c2ccccc2)n2ccccc2[n+]1C/C=C/c1ccccc1
Ki [1]: 2.05 µM
Ki [2]: 0.118 µM
Ki (Histamine H2 receptor): 2.96 µM
Ki [3]: 1.18 µM
Ki [4]: 0.854 µM
Ki [5]: 0.805 µM

SMILES: CN(C)C(=O)N[C@H]1CC[C@H](CCN2CCN(c3cccc(Cl)c3Cl)CC2)CC1 [CARIPRAZINE HYDROCHLORIDE]
Ki [8]: 0.222 µM
Ki [4]: 0.779 µM

SMILES: Cc1nc(-c2ccc(-c3ccc(C(=O)N4CCc5cc6c(cc54)C4(CCN(C)CC4)CO6)cc3)c(C)c2)no1 [SB-224289]
Ki [3]: 1.26 µM

SMILES: Cc1ccc2c(c1)c1c(n2CCc2ccc(C)nc2)CCN(C)C1 [LATREPIRDINE]
Ki (Histamine H2 receptor): 0.215 µM

SMILES: C[C@H](Cc1cc2c(c(C(N)=O)c1)N(CCCO)CC2)NCCOc1ccccc1OCC(F)(F)F [SILODOSIN]
Ki [6]: 0.0328 µM

SMILES: CCCCCNC(=N)N/N=C/c1c[nH]c2ccc(OC)cc12 [TEGASEROD MALEATE]
Ki [1]: 4.94 µM
Ki [7]: 5.84 µM

SMILES: COc1ccc(NC(=O)c2ccc(-c3ccc(-c4noc(C)n4)cc3C)cc2)cc1OCCN(C)C
Ki (Histamine H3 receptor): 0.709 µM
Ki [3]: 1.91 µM
Ki [5]: 0.641 µM

SMILES: COc1cc(-n2cnc3cc(-c4ccc(Cl)cc4)sc3c2=O)ccc1OCCN1CCCC1
Ki [3]: 1.24 µM
Ki [4]: 1.7 µM
